Columns and labels:
in vitro = format: cell-based; conditions: human
Procedure: To examine the performance of the array on a chip form for cell culture, carcinomic human alveolar basal epithelial cells (A549, ATCC, Manassas, Va., USA) were utilized. A549 cells were cultured in F-12K medium (Gibco 21127, Invitrogen Co., Carlsbad, Calif., USA) with 10% v/v fetal bovine serum (FBS) (Gibco 10082, Invitrogen Carlsbad, Calif., USA) and 1% v/v antibiotic-antimycotic (Gibco 15240, Invitrogen, Carlsbad, Calif., USA). The stocks were maintained under 5% CO2 in T25 cell culture flasks (Nunc 156367, Thermo Scientific Inc., Rochester, N.Y., USA), and passaged by dissociation with 0.25% trypsin-EDTA (Gibco 25200, Invitrogen, Carlsbad, Calif., USA). […]
For oxygen scavenging, pyrogallol (benzene-1,2,3-triol, C6H6O3) (87-66-1, Alfa Aesar, Ward Hill, Mass., USA) and sodium hydroxide (NaOH) (30620, Sigma-Aldrich, St Louis, Mo., USA) were introduced into the microfluidic channels to control oxygen tensions. The oxygen tensions in the cell culture wells were calibrated by measuring the relative fluorescence lifetime of an oxygen sensitive fluorescence dye, tris(2,2′-bypyridyl) ruthenium […] chloride (50525-27-4, Acros Organics, Geel, Belgium), while flowing chemicals in the underneath channels with various concentrations using the experimental setup as shown in FIG. 2(a). […]

A549 cells [1] = test: PrestoBlue normalized cell viability of A549 cells treated with TPZ under various oxygen tensions on the array platform (48 hours); format: cell-based, human
Procedure: In the experiments, 1 M NaOH and pyrogallol solutions with concentrations of 0, 190, and 500 μg ml^−1 at flow rates of 20 μml^−1 were used to set the oxygen tensions inside the cell culture wells as normoxia (˜20%), 7.0%, and 1.4%, respectively, and the drug, TPZ, with concentrations of 0, 10, 25, 50, and 100 mM were applied. The cells were cultured under different conditions, including: 20% oxygen and 0 mM TPZ; 20% oxygen and 50 mM TPZ; and 1.4% oxygen and 50 mM TPZ, for 48 hours. […] Furthermore, the cell viability was checked using a live/dead stain solution containing calcein AM (1 mM) and ethidium homodimer-1 (2 mM) from LIVE/DEAD Viability/Cytotoxicity Kit (L3224, Invitrogen). […] To quantitatively characterize the cell viabilities of A549 cells treated with TPZ under various oxygen tensions, the PrestoBlue cell viability assays were performed in the experiments. […] In order to minimize variations between the experiments, the measured fluorescence intensity from each well was normalized to the average intensity of the cell culture wells, in which the cells were cultured under normoixa without TPZ (i.e. 0 mM TPZ). To compare the differences between the normalized cell viabilities for various oxygen tensions, statistical analysis, unpaired, two-tailed Student's t-tests were performed in this study.

A549 cells [2] = test: Cell morphology and attachment of A549 cells cultured with TPZ on the array platform; format: cell-based, human; conditions: 48 hours
Procedure: In the experiments, 1 M NaOH and pyrogallol solutions with concentrations of 0, 190, and 500 μg ml^−1 at flow rates of […] were used to set the oxygen tensions inside the cell culture wells as normoxia (˜20%), 7.0%, and 1.4%, respectively, and the drug, TPZ, with concentrations of […] were applied. The cells were cultured under different conditions, including: 20% oxygen and 0 mM TPZ; 20% oxygen and 50 mM TPZ; and 1.4% oxygen and 50 mM TPZ, for 48 hours. […] Furthermore, the cell viability was checked using a live/dead stain solution containing calcein AM (1 mM) and ethidium homodimer-1 (2 mM) from LIVE/DEAD Viability/Cytotoxicity Kit (L3224, Invitrogen). The great viability (>95% by analyzing four fluorescence images taken in different cell culture wells using an image analysis software MetaMorph from Molecular Devices, Sunnyvale, Calif.) of the cells cultured under the control conditions for 48 hours confirmed the great cell compatibility of the multi-layer PDMS microfluidic device according to the invention. […] To quantitatively characterize the cell viabilities of A549 cells treated with TPZ under various oxygen tensions, the PrestoBlue cell viability assays were performed in the experiments. The developed microfluidic array platform can be directed placed into a microplate reader commonly used in biological labs for assay readout. […]

A 549 cells = test: Fluorescence-based cell viability in conventional 96-well plates with oxygen tension-controlled incubator, compared with the device; design: species or system human; conditions: 96-well plate, 48 hours, normoxia and hypoxia
Procedure: A comparison of cell viabilities under various drug treatments in normoxia and hypoxia conditions using the cell culture array platform according to the invention and conventional 96-well plates (167008, Nunclon DELTA Surface, Nunc) with an oxygen tension-controlled cell incubator (Heracell 240i, Thermo Scientific). In the well plate experiments, approximate 5000 A 549 cells were seeded into each well. The cells with 80 μl medium were incubated overnight in the cell incubator to ensure the cell attachment onto the wells before the drug treatments, and 20 μl drug solutions with various TPZ concentrations were than added into the wells. The cells were incubated with drug-contained medium for 48 hours. After the testing, the cell viabilities were estimated using the fluorescence-based cell viability assay, and read by the plate reader.

Nc1n[n+]([O-])c2ccccc2[n+]1[O-] [TPZ, 3-amino-1,2,4-benzotriazine-1,4-dioxide]
cytotoxicity at 12 h (in vitro): > 20%
normalized cell viability at 1.4% oxygen tension versus 7.0% oxygen tension (A549 cells [1]): lower statistically than that for the 7.0% oxygen tension condition
normalized cell viability, normoxia higher than low oxygen tensions (7.0% and 1.4%) (A549 cells [1]; TPZ concentrations higher than 25 mM, normalized to normoxia without TPZ): more than 20%
cell morphology / attachment (A549 cells [2]; 1.4% oxygen and 50 mM TPZ): more cells became rounded and detached from the substrate
cell morphology / attachment (A549 cells [2]; 20% oxygen and 50 mM TPZ): the shapes of the cells became rounded and some cells detached from the substrate
hypoxia-activated cytotoxicity in well plates compared with the device (A 549 cells): more hypoxia-activated cytotoxicity
